Reference: patent EP4700023A1, “GLP-1R RECEPTOR AGONIST COMPOUND SALT AND CRYSTAL FORM THEREOF, PREPARATION METHOD THEREFOR AND USE THEREOF” (Chengdu Vincentage Pharma Co., Ltd., priority 2023, dated 2024)

How the values were obtained:
[1] = Hygroscopicity test method (DVS); type: physicochemical; conditions: 80% RH, 25°C, DVS
Experimental: Hygroscopicity test method (DVS): The hygroscopicity of the sample was measured using SMS Intrinsic Plus. The sample was weighed into a sample pan, equilibrated at 25°C until dm/dt was less than 0.002%, and then measured in time mode. The humidity was adjusted from 60%-90%-0%-90%-0% RH, with increments of 10% RH per step, and each humidity level was maintained for 1 hour.

[2] = Purity test after storage in an oven at set temperature (stability); type: physicochemical
Experimental: Purity test: The sample to be tested was dissolved in a methanol solution, and the sample purity was measured by HPLC.

[3] = Compressibility test (tableting, XRPD detection); type: physicochemical; conditions: compressed into tablets
[4] = Grindability test (mortar, XRPD detection); type: physicochemical
Experimental: Grindability test: An appropriate amount of the crystal compound to be tested was placed in a mortar and ground for 2 min and 5 min, followed by XRPD detection.

[5] = Solubility test; type: physicochemical; conditions: thermodynamic from solid, water, 37°C, HPLC
Experimental: Approximately 10 mg of the crystal compound was weighed and added to 3 mL of water, shaken, and maintained at 37°C.

[6] = Pharmacokinetic evaluation in rats; type: in vivo; conditions: plasma; Rat PK, oral (PO), 10 mg/kg
Experimental: Rats were used as test animals, and the plasma drug concentrations at different time points after gavage administration of the test sample were measured. The pharmacokinetic behavior of the compound of the present disclosure in rats was studied to evaluate its metabolic characteristics. For each experimental group, 3 rats with similar body weights were selected and orally administered a single dose of 10 mg/kg. […] Pharmacokinetic parameter calculations were performed using metabolic kinetic data analysis software WinNonlin 7.0 by non-compartmental analysis (NCA) based on plasma concentration data.
A test sample with a final preparation concentration (based on the content of the compound of formula I) of 1.0 mg/mL was prepared for oral administration, using a 0.5% CMC Na aqueous solution as the preparation solvent.
Administration: After overnight fasting (12 hours), rats were administered by gavage at a dose of 10 mg/kg.
The blood samples were placed in heparinized sample tubes, and centrifuged at 4°C and 3500 rpm for 10 minutes to separate plasma, which was then stored at -20°C. Food was provided 2 hours after administration.
Determination of the content of the compound to be tested in rat plasma after gavage administration: After thawing plasma samples at room temperature, 300 µL of internal standard (terfenadine 200 ng/mL, acetonitrile) was added to each sample. The mixtures were vortexed for 1 min and then centrifuged at 4°C and 15400 rpm for 10 min. The supernatant was diluted 20-fold with 80% acetonitrile-water and then injected for LC/MS/MS analysis.

[7] = Purity test after storage in an oven at set temperature (stability); type: physicochemical; conditions: 80 °C for 30 days (footnote c)
[8] = Comparison of crystal forms of the salt (behaviour during preparation); conditions: during the preparation process

| SMILES | Hygroscopicity (80% RH) [1] | Hygroscopicity (80% RH), description in words [1] | Purity, 2 to 8°C (6 months) ([2]; 2 to 8°C, 6 months, HPLC) | Purity, Onset ([2]; Onset (before storage), HPLC) | Thermal stability ([2]; conclusion from Table 13, degrades under heating or room temperature) | Purity, 60°C (7 day) ([2]; oven, 60°C, 7 day, HPLC) | Purity, 80°C (result after 30 days) ([2]; oven, 80 °C for 30 days (footnote c), HPLC) | Compressibility (20 Mp) [3] | Grindability (mortar 5 min), purity change [4] | Grindability (mortar 5 min), solid form ([4]; XRPD) | solubility at 24 h [5] | AUC(0-inf) [6] | AUC(0-t) [6] | Cmax [6] | Tmax [6] | half-life [6] | Solid form after 80°C (result after 30 days) [7] | Crystal form stability during preparation [8] |
| --- | --- | --- | --- | --- | --- | --- | --- | --- | --- | --- | --- | --- | --- | --- | --- | --- | --- | --- |
| O=C(O)c1ccc2nc(CN3CCC(c4ccccc4OCc4ccc(Cl)cc4F)CC3)n(C[C@@H]3CCO3)c2c1 [Compound of formula I] | 0.25% | 10 to 90% RH linear reversible | 82.49% | 99.15% | poor thermal stability | 99.15% | 70.18% | Significant reduction in crystallinity, amorphization | 6.5% | Amorphous | < 1 µg/mL | 401 ng·h/mL | 396 ng·h/mL | 154 ng/mL | 40 min | 65.4 min | amorphous | – |
| C1COCCO1.NC(CO)(CO)CO.O=C(O)c1ccc2nc(CN3CCC(c4ccccc4OCc4ccc(Cl)cc4F)CC3)n(CC3CCO3)c2c1 [Crystal form B of the 1,4-dioxane solvate of the 2-amino-2-(hydroxymethyl)-1,3-propanediol salt of (S)-2-((4-(2-((4-chloro-2-fluorobenzyl)oxy)phenyl)piperidin-1-yl)methyl)-1-(oxetan-2-aminomethyl)-1H-benzo[d]imidazole-6-carboxylate] | – | – | – | – | – | – | – | – | – | – | – | – | – | – | – | – | – | unstable, prone to crystal form transformation during preparation |
